{
  "source": "patent US11891387B2",
  "about": "“Monoacylglycerol lipase modulators” (Janssen Pharmaceutica NV, priority 2020, dated 2024)",
  "data": [
    {"biological_target": "human MGL from HeLa cells (Homo sapiens (Human), UniProt Q99685)", "sequence (Q99685 whole entry)": "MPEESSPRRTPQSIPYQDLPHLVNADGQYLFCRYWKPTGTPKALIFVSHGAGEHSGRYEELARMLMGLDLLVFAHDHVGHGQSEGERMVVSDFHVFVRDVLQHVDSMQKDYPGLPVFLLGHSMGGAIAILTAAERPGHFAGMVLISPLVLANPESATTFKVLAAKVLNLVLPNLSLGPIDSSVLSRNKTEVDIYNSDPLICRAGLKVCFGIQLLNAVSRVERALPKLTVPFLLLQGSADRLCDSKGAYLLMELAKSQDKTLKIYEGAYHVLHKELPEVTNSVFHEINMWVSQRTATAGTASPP", "assay": "MGL in vitro activity assay: cleavage of [glycerol-1,3-3H]-oleyl glycerol, activated carbon filtration", "assay_type": "biochemical", "settings": "300 nM [Glycerol-1,3-3H]-oleyl glycerol, endogenously expressed MGL from HeLa cells, one hour incubation", "protocol": "The assay used to measure the in vitro activity of MGL is adapted from the assay used for another serine hydrolase (FAAH) described in Wilson et al., 2003 (A high-throughput-compatible assay for determining the activity of fatty acid amide hydrolase. Wilson S J, Lovenberg T W, Barbier A J. Anal Biochem. 2003 Jul. 15; 318(2):270-5.). The assay consists of combining endogenously expressed MGL from HeLa cells with test compounds, adding [glycerol-1,3-^3H]-oleyl glycerol, incubating for one hour, and then measuring the amount of cleaved [1,3-^3H]-glycerol that passes through an activated carbon filter. The amount of cleaved, tritiated glycerol passing through the carbon filter is proportional to the activity of the MGL enzyme in a particular well/test condition.\nStandard conditions for this assay combine 300 nM [Glycerol-1,3-^3H]-oleyl glycerol with human MGL from HeLa cells and test compounds for one hour, after which the reaction is filtered through activated carbon and tritium is measured in the flow through. The test compound concentration in screening mode is 10 μM, while the highest compound concentration in IC50 assays is determined empirically. MGL is the predominant hydrolase in HeLa cells/cell homogenates.", "units": {"IC50": "nM"}, "values": [
      {"smiles": "Cc1nc2ccc(C(=O)N3CCc4c(nn(C)c4-c4cc(C(F)(F)F)nn4C)[C@@H]3C)cc2s1", "note": "[Example 58, (S)-(2,7-Dimethyl-3-(1-methyl-3-(trifluoromethyl)-1H-pyrazol-5-yl)-2,4,5,7-tetrahydro-6H-pyrazolo[3,4-c]pyridin-6-yl)(2-methylbenzo[d]thiazol-6-yl)methanone]", "IC50": 55},
      {"smiles": "Cc1c(C(=O)N2CCc3c(nn(C)c3-c3cc(C(F)(F)F)nn3C)[C@@H]2C)ccc2ncsc12", "note": "[Example 133, (S)-(2,7-Dimethyl-3-(1-methyl-3-(trifluoromethyl)-1H-pyrazol-5-yl)-2,4,5,7-tetrahydro-6H-pyrazolo[3,4-c]pyridin-6-yl)(7-methylbenzo[d]thiazol-6-yl)methanone]", "IC50": 24},
      {"smiles": "Cc1ccc2c(C(=O)N3[C@@H]4CCC[C@H]3c3nn(C)c(-c5cc(C(F)(F)F)nn5C)c3C4)nccc2n1", "note": "[Example 82, (2-Methyl-1,6-naphthyridin-5-yl)((5R,9S)-2-methyl-3-(1-methyl-3-(trifluoromethyl)-1H-pyrazol-5-yl)-4,5,6,7,8,9-hexahydro-2H-5,9-epiminocycloocta[c]pyrazol-10-yl)methanone]", "IC50": 74},
      {"smiles": "C[C@H]1c2nn(C)c(-c3cnn(C)c3C(F)(F)F)c2CCN1C(=O)c1ccnc2c1ccn2C", "note": "[Example 52, (S)-(2,7-Dimethyl-3-(1-methyl-5-(trifluoromethyl)-1H-pyrazol-4-yl)-2,4,5,7-tetrahydro-6H-pyrazolo[3,4-c]pyridin-6-yl)(1-methyl-1H-pyrrolo[2,3-b]pyridin-4-yl)methanone]", "IC50": 420},
      {"smiles": "C[C@H]1c2nn(C)c(-c3cc(C(F)(F)F)n(C)n3)c2CCN1C(=O)c1ccnc2c1ccn2C", "note": "[Example 49, (S)-(2,7-Dimethyl-3-(1-methyl-5-(trifluoromethyl)-1H-pyrazol-3-yl)-2,4,5,7-tetrahydro-6H-pyrazolo[3,4-c]pyridin-6-yl)(1-methyl-1H-pyrrolo[2,3-b]pyridin-4-yl)methanone]", "IC50": 3.2},
      {"smiles": "Cc1ccc2cc(C(=O)N3CCc4c(nn(C)c4-c4cc(C(F)(F)F)nn4C)[C@@H]3C)c(F)cc2n1", "note": "[Example 91, (S)-(2,7-Dimethyl-3-(1-methyl-3-(trifluoromethyl)-1H-pyrazol-5-yl)-2,4,5,7-tetrahydro-6H-pyrazolo[3,4-c]pyridin-6-yl)(7-fluoro-2-methylquinolin-6-yl)methanone]", "IC50": 210},
      {"smiles": "COc1ccc(C(=O)N2CCc3c(nn(C)c3-c3cc(C(F)(F)F)nn3C)[C@@H]2C)c(Cl)c1", "note": "[Example 42, (S)-(2-Chloro-4-methoxyphenyl)(2,7-dimethyl-3-(1-methyl-3-(trifluoromethyl)-1H-pyrazol-5-yl)-2,4,5,7-tetrahydro-6H-pyrazolo[3,4-c]pyridin-6-yl)methanone]", "IC50": 100},
      {"smiles": "C[C@H]1c2nn(C)c(-c3cc(C(F)(F)F)nn3C)c2CCN1C(=O)c1c[nH]c2cccc(F)c12", "note": "[Example 5, (S)-(2,7-dimethyl-3-(1-methyl-3-(trifluoromethyl)-1H-pyrazol-5-yl)-2,4,5,7-tetrahydro-6H-pyrazolo[3,4-c]pyridin-6-yl)(4-fluoro-1H-indol-3-yl)methanone]", "IC50": 37},
      {"smiles": "Cn1nc(C(F)(F)F)cc1-c1c2c(nn1C)[C@@H]1CCC[C@H](C2)N1C(=O)c1n[nH]c2ncc(F)cc12", "note": "[Example 81, (5-Fluoro-1H-pyrazolo[3,4-b]pyridin-3-yl)((5R,9S)-2-methyl-3-(1-methyl-3-(trifluoromethyl)-1H-pyrazol-5-yl)-4,5,6,7,8,9-hexahydro-2H-5,9-epiminocycloocta[c]pyrazol-10-yl)methanone]", "IC50": 100},
      {"smiles": "C[C@H]1c2nn(C)c(-c3cc(C(F)(F)F)nn3C)c2CCN1C(=O)c1c(F)cnc2c1ccn2C", "note": "[Example 47, (S)-(2,7-Dimethyl-3-(1-methyl-3-(trifluoromethyl)-1H-pyrazol-5-yl)-2,4,5,7-tetrahydro-6H-pyrazolo[3,4-c]pyridin-6-yl)(5-fluoro-1-methyl-1H-pyrrolo[2,3-b]pyridin-4-yl)methanone]", "IC50": 0.67},
      {"smiles": "Cc1ccc2cc(C(=O)N3CCc4c(nn(C)c4-c4cc(C(F)(F)F)nn4C)[C@@H]3C)c(C)cc2n1", "note": "[Example 93, (S)-(2,7-Dimethyl-3-(1-methyl-3-(trifluoromethyl)-1H-pyrazol-5-yl)-2,4,5,7-tetrahydro-6H-pyrazolo[3,4-c]pyridin-6-yl)(2,7-dimethylquinolin-6-yl)methanone]", "IC50": 1210},
      {"smiles": "C[C@H]1c2nn(C)c(-c3cc(C(F)(F)F)nn3C)c2CCN1C(=O)c1cccc2c1OCCC2", "note": "[Example 54, (S)-Chroman-8-yl(2,7-dimethyl-3-(1-methyl-3-(trifluoromethyl)-1H-pyrazol-5-yl)-2,4,5,7-tetrahydro-6H-pyrazolo[3,4-c]pyridin-6-yl)methanone]", "IC50": 16},
      {"smiles": "COc1cccc(C(=O)N2[C@@H]3CCC[C@H]2c2nn(C)c(-c4cc(C)nn4C)c2C3)c1C", "note": "(stereo in doubt) [Example 73, ((5R,9S)-3-(1,3-Dimethyl-1H-pyrazol-5-yl)-2-methyl-4,5,6,7,8,9-hexahydro-2H-5,9-epiminocycloocta[c]pyrazol-10-yl)(3-methoxy-2-methylphenyl)methanone]", "IC50": 230},
      {"smiles": "Cc1cc(C(=O)N2CCc3c(nn(C)c3-c3cc(C(F)(F)F)n(C)n3)[C@@H]2C)c2cc(F)ccc2n1", "note": "[Example 132, (S)-(2,7-Dimethyl-3-(1-methyl-5-(trifluoromethyl)-1H-pyrazol-3-yl)-2,4,5,7-tetrahydro-6H-pyrazolo[3,4-c]pyridin-6-yl)(6-fluoro-2-methylquinolin-4-yl)methanone]", "IC50": 27},
      {"smiles": "COc1cccc(C(=O)N2[C@@H]3CCC[C@H]2c2nn(C)c(-c4cc(C(F)(F)F)nn4C)c2C3)c1C", "note": "(stereo in doubt) [Example 74, (3-Methoxy-2-methylphenyl)((5R,9S)-2-methyl-3-(1-methyl-3-(trifluoromethyl)-1H-pyrazol-5-yl)-4,5,6,7,8,9-hexahydro-2H-5,9-epiminocycloocta[c]pyrazol-10-yl)methanone]", "IC50": 19},
      {"smiles": "C[C@H]1c2nn(C)c(-c3cc(C(F)(F)F)n(C)n3)c2CCN1C(=O)c1ccc2ncsc2c1", "note": "[Example 120, (S)-Benzo[d]thiazol-6-yl(2,7-dimethyl-3-(1-methyl-5-(trifluoromethyl)-1H-pyrazol-3-yl)-2,4,5,7-tetrahydro-6H-pyrazolo[3,4-c]pyridin-6-yl)methanone]", "IC50": 46},
      {"smiles": "C[C@H]1c2nn(C)c(-c3cnn(C)c3C(F)(F)F)c2CCN1C(=O)c1ccc2ncsc2c1", "note": "[Example 59, (S)-Benzo[d]thiazol-6-yl(2,7-dimethyl-3-(1-methyl-5-(trifluoromethyl)-1H-pyrazol-4-yl)-2,4,5,7-tetrahydro-6H-pyrazolo[3,4-c]pyridin-6-yl)methanone]", "IC50": 2960},
      {"smiles": "Cc1cc(C(=O)N2CCc3c(nn(C)c3-c3cc(C(F)(F)F)n(C)n3)[C@@H]2C)cc(-n2nccn2)c1", "note": "[Example 50, (S)-(2,7-Dimethyl-3-(1-methyl-5-(trifluoromethyl)-1H-pyrazol-3-yl)-2,4,5,7-tetrahydro-6H-pyrazolo[3,4-c]pyridin-6-yl)(3-methyl-5-(2H-1,2,3-triazol-2-yl)phenyl)methanone]", "IC50": 23},
      {"smiles": "C[C@H]1c2nn(C)c(-c3cc(C(F)(F)F)nn3C)c2CCN1C(=O)c1cccc2ncsc12", "note": "[Example 57, (S)-Benzo[d]thiazol-7-yl(2,7-dimethyl-3-(1-methyl-3-(trifluoromethyl)-1H-pyrazol-5-yl)-2,4,5,7-tetrahydro-6H-pyrazolo[3,4-c]pyridin-6-yl)methanone]", "IC50": 22}
    ]}
  ]
}
